Assay results from ChEMBL document CHEMBL1136998, “Bis-neonicotinoid insecticides: Observed and predicted binding interactions with the nicotinic receptor” (Bioorg Med Chem Lett, 2009).

Assay: Displacement of [3H]IMI from Drosophila melanogaster brain nAChR

SMILES | Ki
O=[N+]([O-])/N=C1/N(CC/C=C\CCN2CCN(Cc3ccc(Cl)nc3)/C2=N\[N+](=O)[O-])CCN1Cc1ccc(Cl)nc1 | 780 nM
O=[N+]([O-])/N=C1/N(CCCCCCCN2CCN(Cc3ccc(Cl)nc3)/C2=N\[N+](=O)[O-])CCN1Cc1ccc(Cl)nc1 | 140 nM
O=[N+]([O-])/N=C1/N(CCCCCN2CCN(Cc3ccc(Cl)nc3)/C2=N\[N+](=O)[O-])CCN1Cc1ccc(Cl)nc1 | 5350 nM
O=[N+]([O-])/N=C1/N(CCCCCCN2CCN(Cc3ccc(Cl)nc3)/C2=N\[N+](=O)[O-])CCN1Cc1ccc(Cl)nc1 | 680 nM
O=[N+]([O-])/N=C1/N(CCCCCCCCCN2CCN(Cc3ccc(Cl)nc3)/C2=N\[N+](=O)[O-])CCN1Cc1ccc(Cl)nc1 | 1380 nM
O=[N+]([O-])/N=C1/N(Cc2ccc(CN3CCN(Cc4ccc(Cl)nc4)/C3=N\[N+](=O)[O-])cc2)CCN1Cc1ccc(Cl)nc1 | 1180 nM
O=[N+]([O-])/N=C1/N(CC/C=C/CCN2CCN(Cc3ccc(Cl)nc3)/C2=N\[N+](=O)[O-])CCN1Cc1ccc(Cl)nc1 | 2490 nM
O=[N+]([O-])/N=C1/N(C/C=C/C=C/CN2CCN(Cc3ccc(Cl)nc3)/C2=N\[N+](=O)[O-])CCN1Cc1ccc(Cl)nc1 | 970 nM
O=[N+]([O-])/N=C1/N(CCCCCCCCN2CCN(Cc3ccc(Cl)nc3)/C2=N\[N+](=O)[O-])CCN1Cc1ccc(Cl)nc1 | 880 nM

Assay: Displacement of [3H]IMI from house fly nAChR
Design: species or system Musca domestica

SMILES | Ki
O=[N+]([O-])/N=C1/N(CCCCCCCCCCN2CCN(Cc3ccc(Cl)nc3)/C2=N\[N+](=O)[O-])CCN1Cc1ccc(Cl)nc1 | 110000 nM
O=[N+]([O-])/N=C1\N(Cc2ccc(Cl)nc2)CCN1CN1CCN(Cc2ccc(Cl)nc2)/C1=N\[N+](=O)[O-] | 27000 nM
